This note sets out measurements from patent publication US20230390251A1, “METHODS OF TREATING RIBONUCLEOTIDE REDUCTASE-RELATED DISEASES WITH A RIBONUCLEOTIDE REDUCTASE INHIBITOR” (TAIHO PHARMACEUTICAL CO., LTD., priority 2020, published 2023).

In the test the test system is Human acute myelocytic leukemia (AML) cell line MV-4-11 cells. Nature of the test: Anti-tumor effect (relative tumor volume) in nude mice implanted with MV-4-11 cells. The note with it: for effect of reducing tumor volume (RTV) compared to the Control Group: Day 15. The class given is in vivo. On the procedure: Anti-tumor Effect and body weight change in QOD Dosing Regimen Human acute myelocytic leukemia (AML) cell line MV-4-11 cells (American Type Culture Collection CRL-9591™) were implanted in the right thorax of male nude mice (CLEA Japan, Inc.). After implantation of the tumor, the major axis (mm) and minor axis (mm) of the tumor were measured, and tumor volume (TV) was calculated for each mouse. Then, the mice were assigned to the following groups, Control group (◯), Continuous Dosing Group (●: 100 mg/kg/day; ⋄: 150 mg/kg/day) and QOD Dosing Group (▴: 200 mg/kg/day; ♦: 300 mg/kg/day), so that the average TV of each group was equivalent. The day in which the grouping (n=5) was conducted was taken as Day 0.
5-chloro-2-(N-((1S,2R)-2-(6-fluoro-2,3-dimethylphenyl)-1-(5-oxo-4,5-dihydro-1,3,4-oxadiazol-2-yl)propyl)sulfamoyl)benzamide (Compound A) was suspended in 5 mg/mL hypromellose solution to provide appropriate test samples for 100 mg/kg, 150 mg/kg. 200 mg/kg, and 300 mg/kg dosing regimen. Animals of the Control group were not treated.
To mice in the Continuous Dosing Group, 100 mg/kg/day or 150 mg/kg/day of Compound A was orally administered once daily from Day 1 to Day 14. The total dosage for mice in the Continuous Dosing Group administered 100 mg/kg/day (Group C-1) was 1400 mg/kg, and the total dosage for mice in the Continuous Dosing Group administered 150 mg/kg/day (Group C-2) was 2100 mg/kg.
To mice in the QOD Dosing Group, 200 mg/kg/day or 300 mg/kg/day of Compound A was orally administered once every other day for two weeks (Days 1, 3, 5, 7, 9, 11 and 13). The total dosage for mice in the QOD Dosing Group administered 200 mg/kg/day (Group QOD-1) was 1400 mg/kg, and the total dosage for mice in the QOD Dosing Group administered 300 mg/kg/day (Group QOD-2) was 2100 mg/kg.
On Days 4, 8, 11 and 15, using the following formula: TV (mm^3)=(major axis×minor axis^2)/2, relative tumor volume (RTV) was calculated as an index of anti-tumor effect during the dosing period for each group (FIG. 1).
Similar to Example 1, anti-tumor effect and body weight change were studied in mice harboring MV-4-11 cells among the following five groups: Control group (◯), Continuous Dosing Group (●: 100 mg/kg/day; ⋄: 150 mg/kg/day) and QW Dosing Group (▪: 700 mg/kg/day; x: 1050 mg/kg/day).
To mice in the QW Dosing Group, 700 mg/kg/day or 1050 mg/kg/day of Compound A was orally administered once per week for two weeks (Days 1 and 8). The total dosage for mice in the QW Dosing Group administered 700 mg/kg/day (Group QW-1) was 1400 mg/kg, and the total dosage for mice in the QW Dosing Group administered 1050 mg/kg/day (Group QW-2) was 2100 mg/kg.
Similar to Example 1, anti-tumor effect and body weight change were studied in mice harboring MV-4-11 cells among the following five groups: Control group (◯), Continuous Dosing Group (●: 100 mg/kg/day; ⋄: 150 mg/kg/day) and 3QW Dosing Group 1 (▴: 233 mg/kg/day; ♦: 350 mg/kg/day).
To mice in the 3QW Dosing Group 1, 233 mg/kg/day or 350 mg/kg/day of Compound A was orally administered three days consecutively per week for two weeks (Days 1-3 and 8-10). The total dosage for mice in the 3QW Dosing Group 1 administered 233 mg/kg/day (Group 3QW1-1) was 1400 mg/kg, and the total dosage for mice in the 3QW Dosing Group 1 administered 350 mg/kg/day (Group 3QW1-2) was 2100 mg/kg.
Anti-tumor Effect and body weight change in 3QW Dosing Regimen 2 Similar to Example 1, anti-tumor effect and body weight change were studied in mice harboring MV-4-11 cells among the following five groups: Control group (0), Continuous Dosing Group (●: 100 mg/kg/day; ⋄: 150 mg/kg/day) and 3QW Dosing Group 2 (▴: 233 mg/kg/day; ♦: 350 mg/kg/day).
To mice in the 3QW Dosing Group 2, 233 mg/kg/day or 350 mg/kg/day of Compound A was orally administered every other day three times per week for two weeks (Days 1, 3, 5, 8, 10 and 12). […]

Structures are written as SMILES.

On to `Cc1ccc(F)c([C@@H](C)[C@H](NS(=O)(=O)c2ccc(Cl)cc2C(N)=O)c2n[nH]c(=O)o2)c1C` [Compound A, 5-chloro-2-(N-((1S,2R)-2-(6-fluoro-2,3-dimethylphenyl)-1-(5-oxo-4,5-dihydro-1,3,4-oxadiazol-2-yl)propyl)sulfamoyl)benzamide], for which the “effect of reducing tumor volume, Group 3QW1-2 compared with Group C-2” value (3QW (consecutive) 350 mg/kg/day vs continuous 150 mg/kg/day, total dosage 2100 mg/kg, not statistically significant) is “similar”. The “effect of reducing tumor volume, Group 3QW2-1 compared with Group C-1” value (3QW (every other day) 233 mg/kg/day vs continuous 100 mg/kg/day, total dosage 1400 mg/kg, t-test P<0.05) is listed as “higher than Group C-1”. Besides, the “effect of reducing tumor volume, Group 3QW2-2 compared with Group C-2” value (3QW (every other day) 350 mg/kg/day vs continuous 150 mg/kg/day, total dosage 2100 mg/kg, not statistically significant) is “similar”. In addition, the “effect of reducing tumor volume (RTV) compared to the Control Group” value was “showed the effect of reducing tumor volume compared to the Control Group” (3QW Dosing Group 1, 233 or 350 mg/kg/day orally Days 1-3 and 8-10); “showed the effect of reducing tumor volume compared to the Control Group” (3QW Dosing Group 2, 233 or 350 mg/kg/day orally Days 1, 3, 5, 8, 10 and 12); “showed the effect of reducing tumor volume compared to the Control Group” (5QW Dosing Group 1, 140 or 210 mg/kg/day orally Days 1-5 and 8-12); “showed the effect of reducing tumor volume compared to the Control Group” (5QW Dosing Group 2, 140 or 210 mg/kg/day orally Days 1-2, 4-6, 8-9 and 11-13); “showed the effect of reducing tumor volume compared to the Control Group” (Continuous Dosing Group, 100 or 150 mg/kg/day orally once daily Day 1 to Day 14); “showed the effect of reducing tumor volume compared to the Control Group” (QOD Dosing Group, 200 or 300 mg/kg/day orally Days 1, 3, 5, 7, 9, 11 and 13). The “effect of reducing tumor volume (RTV) compared to the Control Group” value (QW Dosing Group, 700 or 1050 mg/kg/day orally Days 1 and 8) is recorded as “showed the effect of reducing tumor volume compared to the Control Group”. Moreover, the “effect of reducing tumor volume, Group 5QW2-2 compared with Group C-2” value (5QW (2 on/1 off/3 on/1 off) 210 mg/kg/day vs continuous 150 mg/kg/day, total dosage 2100 mg/kg, t-test p<0.05) is “higher than Group C-2 with a statistically significant difference”. The “effect of reducing tumor volume, Group 5QW1-2 compared with Group C-2” value (5QW (consecutive) 210 mg/kg/day vs continuous 150 mg/kg/day, total dosage 2100 mg/kg, not statistically significant) is recorded as “similar”. Further, the “effect of reducing tumor volume, Group QOD-1 compared with Group C-1” value (QOD 200 mg/kg/day vs continuous 100 mg/kg/day, total dosage 1400 mg/kg, t-test p<0.05) is recorded as “higher than Group C-1”. Further, the “effect of reducing tumor volume, Group QOD-2 compared with Group C-2” value (QOD 300 mg/kg/day vs continuous 150 mg/kg/day, total dosage 2100 mg/kg, not statistically significant) is listed as “similar”. Moreover, for the setting “QW 1050 mg/kg/day vs continuous 150 mg/kg/day, total dosage 2100 mg/kg, not statistically significant”, the “effect of reducing tumor volume, Group QW-2 compared with Group C-2” value was “similar”.
